Numbers after ± are expanded uncertainties.
Experiment: xn = mol fraction of the nth substance listed
Conditions: 101 kPa, Liquid; for electrical conductivity: DDS-307 conductivity meter

CCCCCCn1cc[n+](C)c1C.O=S(=O)([N-]S(=O)(=O)C(F)(F)F)C(F)(F)F + COC(=O)OC
Conditions | electrical conductivity [S/m] | mass density [kg/m3]
293.15 K, x1 = 0.0466 | – | 1120.02 ± 0.9
293.15 K, x1 = 0.0774 | – | 1145.97 ± 1
293.15 K, x1 = 0.1154 | – | 1173.26 ± 1.1
293.15 K, x1 = 0.1633 | – | 1201.7 ± 1.3
293.15 K, x1 = 0.2269 | – | 1231.14 ± 1.4
293.15 K, x1 = 0.3131 | – | 1261.37 ± 1.6
293.15 K, x1 = 0.4385 | – | 1292.48 ± 1.9
293.15 K, x1 = 0.6368 | – | 1324.48 ± 2.2
293.15 K, x1 = 0.7472 | – | 1337.22 ± 2.4
293.15 K, x1 = 1 | – | 1358.19 ± 2.9
298.15 K, x1 = 0.0466 | 0.34 ± 0.02 | 1113.88 ± 0.87
298.15 K, x1 = 0.0774 | 0.579 ± 0.035 | 1140.01 ± 0.99
298.15 K, x1 = 0.1154 | 0.755 ± 0.045 | 1167.46 ± 1.1
298.15 K, x1 = 0.1633 | 0.839 ± 0.051 | 1195.92 ± 1.2
298.15 K, x1 = 0.2269 | 0.813 ± 0.049 | 1225.5 ± 1.4
298.15 K, x1 = 0.3131 | 0.631 ± 0.038 | 1255.94 ± 1.6
298.15 K, x1 = 0.4385 | 0.509 ± 0.031 | 1287.18 ± 1.8
298.15 K, x1 = 0.6368 | 0.23 ± 0.014 | 1319.32 ± 2.2
298.15 K, x1 = 0.7472 | 0.164 ± 0.0099 | 1332.18 ± 2.4
298.15 K, x1 = 1 | 0.108 ± 0.0068 | 1353.11 ± 2.8
303.15 K, x1 = 0.0466 | 0.378 ± 0.023 | 1107.71 ± 0.85
303.15 K, x1 = 0.0774 | 0.649 ± 0.039 | 1134.13 ± 0.96
303.15 K, x1 = 0.1154 | 0.82 ± 0.049 | 1161.84 ± 1.1
303.15 K, x1 = 0.1633 | 0.893 ± 0.054 | 1190.53 ± 1.2
303.15 K, x1 = 0.2269 | 0.862 ± 0.052 | 1220.22 ± 1.4
303.15 K, x1 = 0.3131 | 0.689 ± 0.041 | 1250.93 ± 1.6
303.15 K, x1 = 0.4385 | 0.553 ± 0.033 | 1282.32 ± 1.8
303.15 K, x1 = 0.6368 | 0.296 ± 0.018 | 1314.7 ± 2.2
303.15 K, x1 = 0.7472 | 0.209 ± 0.013 | 1327.65 ± 2.4
303.15 K, x1 = 1 | 0.158 ± 0.0097 | 1348.71 ± 2.8
308.15 K, x1 = 0.0466 | 0.416 ± 0.025 | 1101.52 ± 0.83
308.15 K, x1 = 0.0774 | 0.718 ± 0.043 | 1128.2 ± 0.94
308.15 K, x1 = 0.1154 | 0.884 ± 0.053 | 1156.12 ± 1.1
308.15 K, x1 = 0.1633 | 0.947 ± 0.057 | 1185.04 ± 1.2
308.15 K, x1 = 0.2269 | 0.91 ± 0.055 | 1214.85 ± 1.4
308.15 K, x1 = 0.3131 | 0.751 ± 0.045 | 1245.85 ± 1.6
308.15 K, x1 = 0.4385 | 0.61 ± 0.037 | 1277.48 ± 1.8
308.15 K, x1 = 0.6368 | 0.361 ± 0.022 | 1310.14 ± 2.1
308.15 K, x1 = 0.7472 | 0.275 ± 0.017 | 1323.1 ± 2.3
308.15 K, x1 = 1 | 0.213 ± 0.013 | 1344.29 ± 2.8
313.15 K, x1 = 0.0466 | 0.454 ± 0.027 | 1096.1 ± 0.81
313.15 K, x1 = 0.0774 | 0.788 ± 0.047 | 1123 ± 0.93
313.15 K, x1 = 0.1154 | 0.949 ± 0.057 | 1151.09 ± 1.1
313.15 K, x1 = 0.1633 | 1 ± 0.06 | 1180.2 ± 1.2
313.15 K, x1 = 0.2269 | 0.959 ± 0.058 | 1210.16 ± 1.3
313.15 K, x1 = 0.3131 | 0.812 ± 0.049 | 1241.28 ± 1.5
313.15 K, x1 = 0.4385 | 0.667 ± 0.04 | 1272.94 ± 1.8
313.15 K, x1 = 0.6368 | 0.433 ± 0.026 | 1305.67 ± 2.1
313.15 K, x1 = 0.7472 | 0.35 ± 0.021 | 1318.62 ± 2.3
313.15 K, x1 = 1 | 0.271 ± 0.016 | 1339.88 ± 2.8
318.15 K, x1 = 0.0466 | 0.492 ± 0.03 | 1089.11 ± 0.79
318.15 K, x1 = 0.0774 | 0.857 ± 0.051 | 1116.3 ± 0.9
318.15 K, x1 = 0.1154 | 1.01 ± 0.061 | 1144.64 ± 1
318.15 K, x1 = 0.1633 | 1.05 ± 0.063 | 1174.05 ± 1.2
318.15 K, x1 = 0.2269 | 1.01 ± 0.06 | 1204.45 ± 1.3
318.15 K, x1 = 0.3131 | 0.876 ± 0.053 | 1235.85 ± 1.5
318.15 K, x1 = 0.4385 | 0.706 ± 0.042 | 1267.89 ± 1.8
318.15 K, x1 = 0.6368 | 0.492 ± 0.03 | 1300.91 ± 2.1
318.15 K, x1 = 0.7472 | 0.399 ± 0.024 | 1314.09 ± 2.3
318.15 K, x1 = 1 | 0.319 ± 0.019 | 1335.47 ± 2.7
323.15 K, x1 = 0.0466 | 0.53 ± 0.032 | 1082.85 ± 0.76
323.15 K, x1 = 0.0774 | 0.927 ± 0.056 | 1110.32 ± 0.88
323.15 K, x1 = 0.1154 | 1.08 ± 0.065 | 1138.89 ± 1
323.15 K, x1 = 0.1633 | 1.11 ± 0.067 | 1168.73 ± 1.1
323.15 K, x1 = 0.2269 | 1.05 ± 0.063 | 1199.16 ± 1.3
323.15 K, x1 = 0.3131 | 0.933 ± 0.056 | 1230.72 ± 1.5
323.15 K, x1 = 0.4385 | 0.782 ± 0.047 | 1263.01 ± 1.7
323.15 K, x1 = 0.6368 | 0.548 ± 0.033 | 1296.31 ± 2.1
323.15 K, x1 = 0.7472 | 0.469 ± 0.028 | 1309.51 ± 2.3
323.15 K, x1 = 1 | 0.369 ± 0.022 | 1331.06 ± 2.7
328.15 K, x1 = 0.0466 | 0.568 ± 0.034 | 1076.68 ± 0.74
328.15 K, x1 = 0.0774 | 0.996 ± 0.06 | 1104.42 ± 0.86
328.15 K, x1 = 0.1154 | 1.14 ± 0.069 | 1133.32 ± 0.98
328.15 K, x1 = 0.1633 | 1.16 ± 0.07 | 1163.27 ± 1.1
328.15 K, x1 = 0.2269 | 1.1 ± 0.066 | 1193.98 ± 1.3
328.15 K, x1 = 0.3131 | 0.998 ± 0.06 | 1225.63 ± 1.5
328.15 K, x1 = 0.4385 | 0.834 ± 0.05 | 1258.14 ± 1.7
328.15 K, x1 = 0.6368 | 0.623 ± 0.037 | 1291.79 ± 2.1
328.15 K, x1 = 0.7472 | 0.537 ± 0.032 | 1304.97 ± 2.2
328.15 K, x1 = 1 | 0.426 ± 0.026 | 1326.65 ± 2.7
333.15 K, x1 = 0.0466 | 0.606 ± 0.036 | 1070.28 ± 0.72
333.15 K, x1 = 0.0774 | 1.07 ± 0.064 | 1098.51 ± 0.84
333.15 K, x1 = 0.1154 | 1.21 ± 0.072 | 1127.61 ± 0.96
333.15 K, x1 = 0.1633 | 1.22 ± 0.073 | 1157.77 ± 1.1
333.15 K, x1 = 0.2269 | 1.15 ± 0.069 | 1188.58 ± 1.3
333.15 K, x1 = 0.3131 | 1.07 ± 0.064 | 1220.43 ± 1.5
333.15 K, x1 = 0.4385 | 0.915 ± 0.055 | 1253.16 ± 1.7
333.15 K, x1 = 0.6368 | 0.686 ± 0.041 | 1287.1 ± 2
333.15 K, x1 = 0.7472 | 0.605 ± 0.036 | 1300.47 ± 2.2
333.15 K, x1 = 1 | 0.48 ± 0.029 | 1322.24 ± 2.7

— the NIST ThermoML archive (doi:10.1021/je100679s)
